Assay results taken from patent US12350270B2, “Antimalarial agents” (Merck Sharp & Dohme LLC, priority 2019, dated 2025).
pEC50: −log10 of the molar value.

test system: parasites (ring stage, in human red blood cell culture); experiment: Parasite LDH growth assay (antiparasite potency, Parasite Assay); assay type: cell-based, Plasmodium falciparum; conditions: 0.7% rings, 2% haematocrit, 72 hours at 37° C., LDH readout of parasite growth
Protocol: Assessing Antiparasite Potency in a Parasite LDH Growth Assay (Parasite Assay)
The parasite stock was maintained at 4% haematocrit in RPMI-Hepes media buffered with sodium bicarbonate and supplemented with 5% heat inactivated human serum and 0.5% albumax.
On the day of assay set up, a blood smear of the parasite culture was Giemsa stained and counted. The parasitemia was adjusted to 0.7% rings and the haematocrit was diluted to 2% in RPMI-Hepes media buffered with sodium bicarbonate and supplemented with 5% heat inactivated human serum and 0.5% albumax. 30 ul of diluted parasites are then added into 10 ul of media+compound in pre-prepared Greiner TC assay plates. Parasite assay plates were placed in gassed humidified boxes in single layer and allowed to incubate at 37° C. for 72 hours. After 72 hours growth, assay plates are sealed with parafilm and frozen flat, in single file at −80° C. overnight. On the following day, assay plates are allowed to thaw at room temperature for 4 hours to which an LDH assay is performed to measure parasite growth.

First: CC[C@]1(C)CC(=O)N([C@@H]2CCOc3ccc(C(=O)NC4c5cc(F)ccc5OCC4(C)O)cc32)C(=N)N1 (single isomer, unassigned) [Example 190C]
Second: CCC1(CC)CC(=O)N([C@@H]2CCOc3ccc(C(=O)NC4c5cc(F)ccc5OCC4(C)O)cc32)C(=N)N1 (single isomer, unassigned) [Example 226A]
The pEC50 of the first is 0.28 log units lower: 8.31 for the first, 8.59 for the second.

First: CC[C@]1(C)CC(=O)N([C@@H]2CCOc3ccc(C(=O)NC4c5c(F)cccc5OCC4(C)O)cc32)C(=N)N1 (single isomer, unassigned) [Example 193A]
Second: CCC1(CC)CC(=O)N([C@@H]2CCOc3ccc(C(=O)NC4c5c(OC)cccc5OCC4(C)O)cc32)C(=N)N1 (single isomer, unassigned) [Example 259A]
The pEC50 of the first is 1.24 log units lower: 7.02 for the first, 8.26 for the second.

Going from `CC[C@]1(C)CC(=O)N([C@@H]2CCOc3ccc(C(=O)NC4c5c(F)cccc5OCC4(C)O)cc32)C(=N)N1` (single isomer, unassigned) [Example 193B] to `CCC1(CC)CC(=O)N([C@@H]2CCOc3ccc(C(=O)NC4c5c(OC)cccc5OCC4(C)O)cc32)C(=N)N1` (single isomer, unassigned) [Example 259B], the pEC50 falls from 9.10 to 7.62 (1.48 log units).

Going from `CC[C@]1(C)CC(=O)N([C@@H]2CCOc3ccc(C(=O)NC4c5c(F)cccc5OCC4(C)O)cc32)C(=N)N1` (single isomer, unassigned) [Example 193C] to `CCC1(CC)CC(=O)N([C@@H]2CCOc3ccc(C(=O)NC4c5c(OC)cccc5OCC4(C)O)cc32)C(=N)N1` (single isomer, unassigned) [Example 259C], the pEC50 rises from 7.71 to 8.44 (0.73 log units).

`COCC1(C)Oc2ccc(C(=O)N[C@H]3CC(C)(C)Oc4ccccc43)cc2C1N1C(=N)NC(C)(C)CC1=O` (single isomer, unassigned) [Example 214A] and `COCC1(C)CC(N2C(=N)NC(C)(C)CC2=O)c2cc(C(=O)N[C@@H]3c4ccccc4OC(C)(C)[C@H]3O)ccc2O1` (single isomer, unassigned) [Example 282A] are within 0.2 log units of each other in pEC50: 8.09 for the first, 8.11 for the second.

First: COCC1(C)Oc2ccc(C(=O)N[C@H]3CC(C)(C)Oc4ccccc43)cc2C1N1C(=N)NC(C)(C)CC1=O (single isomer, unassigned) [Example 214B]
Second: COCC1(C)CC(N2C(=N)NC(C)(C)CC2=O)c2cc(C(=O)N[C@@H]3c4ccccc4OC(C)(C)[C@H]3O)ccc2O1 (single isomer, unassigned) [Example 282B]
The pEC50 of the first is 0.80 log units lower: 6.59 for the first, 7.39 for the second. The second is the more potent here.

`CCC1(CC)CC(=O)N([C@@H]2CCOc3ccc(C(=O)NC4c5cc(F)ccc5OCC4(C)O)cc32)C(=N)N1` (single isomer, unassigned) [Example 226B] and `CCC1(CC)CC(=O)N([C@@H]2CCOc3ccc(C(=O)NC4c5ccc(OC)cc5OCC4(C)O)cc32)C(=N)N1` (single isomer, unassigned) [Example 258A] are within 0.2 log units of each other in pEC50: 7.16 for the first, 7.07 for the second.

Going from `CCC1(CC)CC(=O)N([C@@H]2CCOc3ccc(C(=O)NC4c5cc(F)ccc5OCC4(C)O)cc32)C(=N)N1` (single isomer, unassigned) [Example 226C] to `CCC1(CC)CC(=O)N([C@@H]2CCOc3ccc(C(=O)NC4c5ccc(OC)cc5OCC4(C)O)cc32)C(=N)N1` (single isomer, unassigned) [Example 258B], the pEC50 rises from 6.56 to 8.62 (2.06 log units). The second is the more potent here.

Going from `CCC1(CC)CC(=O)N([C@@H]2CCOc3ccc(C(=O)NC4c5cc(F)ccc5OCC4(C)O)cc32)C(=N)N1` (single isomer, unassigned) [Example 226D] to `CCC1(CC)CC(=O)N([C@@H]2CCOc3ccc(C(=O)NC4c5ccc(OC)cc5OCC4(C)O)cc32)C(=N)N1` (single isomer, unassigned) [Example 258C], the pEC50 falls from 9.00 to 6.65 (2.35 log units).

Compared with `CC1(C)CC(=O)N([C@@H]2CCOc3ccc(C(=O)NC4c5ccccc5OCC4(O)C(F)(F)F)cc32)C(=N)N1` (single isomer, unassigned) [Example 234A], `CCC1(CC)CC(=O)N([C@@H]2CCOc3ccc(C(=O)NC4c5ccccc5CC4(O)C(F)(F)F)cc32)C(=N)N1` (single isomer, unassigned) [Example 272A] is 0.45 log units lower in pEC50: 7.65 for the first, 7.20 for the second.

Compared with `CC1(C)CC(=O)N([C@@H]2CCOc3ccc(C(=O)NC4c5ccccc5OCC4(O)C(F)(F)F)cc32)C(=N)N1` (single isomer, unassigned) [Example 234B], `CCC1(CC)CC(=O)N([C@@H]2CCOc3ccc(C(=O)NC4c5ccccc5CC4(O)C(F)(F)F)cc32)C(=N)N1` (single isomer, unassigned) [Example 272B] is 0.57 log units lower in pEC50: 8.41 for the first, 7.84 for the second.

Going from `CC1(C)CC(=O)N([C@@H]2CCOc3ccc(C(=O)NC4c5ccccc5OCC4(O)C(F)(F)F)cc32)C(=N)N1` (single isomer, unassigned) [Example 234C] to `CCC1(CC)CC(=O)N([C@@H]2CCOc3ccc(C(=O)NC4c5ccccc5CC4(O)C(F)(F)F)cc32)C(=N)N1` (single isomer, unassigned) [Example 272C], the pEC50 rises from 7.36 to 9.05 (1.69 log units).

Compared with `CCC1(CC)CC(=O)N([C@@H]2CCOc3ccc(C(=O)NC4c5ccccc5OC(C)(C)C4(C)O)cc32)C(=N)N1` (single isomer, unassigned) [Example 242A], `CCC1(CC)CC(=O)N([C@@H]2CCOc3ccc(C(=O)NC4c5ccc(OC)cc5OCC4(C)O)cc32)C(=N)N1` (single isomer, unassigned) [Example 258D] is 1.05 log units lower in pEC50: 9.22 for the first, 8.17 for the second.

`CCC1(CC)CC(=O)N([C@@H]2CCOc3ccc(C(=O)NC4c5ccccc5OC(C)(C)C4(C)O)cc32)C(=N)N1` (single isomer, unassigned) [Example 242B] and `CCC1(CC)CC(=O)N([C@@H]2CCOc3ccc(C(=O)NC4c5c(OC)cccc5OCC4(C)O)cc32)C(=N)N1` (single isomer, unassigned) [Example 259D] are within 0.2 log units of each other in pEC50: 7.98 for the first, 7.97 for the second.

Going from `CCC1(CC)CC(=O)N(C2c3cc(C(=O)N[C@@H]4c5ccccc5OC(C)(C)[C@H]4O)ccc3CC2OC)C(=N)N1` (single isomer, unassigned) [Example 251A] to `CCC1(CC)CC(=O)N([C@@H]2CCOc3ccc(C(=O)NC4c5ccccc5CC4(O)C(F)(F)F)cc32)C(=N)N1` (single isomer, unassigned) [Example 272D], the pEC50 falls from 9.40 to 8.64 (0.76 log units). The first is the more potent here.

For `CCC1(CC)CC(=O)N(C2c3cc(C(=O)N[C@@H]4c5ccccc5OC(C)(C)[C@H]4O)ccc3CC2OC)C(=N)N1` (single isomer, unassigned) [Example 251B], the pEC50 was 8.82.
Compound `CCC1(CC)CC(=O)N(C2c3cc(C(=O)N[C@@H]4c5ccccc5OC(C)(C)[C@H]4O)ccc3CC2OC)C(=N)N1` (single isomer, unassigned) [Example 251C] has a pEC50 of 7.07.

same assay, conditions: Plasmodium falciparum, Erythrocyte, 72 h, 0.7% rings, 2% haematocrit, 72 hours at 37° C., LDH readout of parasite growth

First: CCC1(CC)CC(=O)N([C@H]2c3cc(C(=O)NC4c5ccccc5C(F)(F)[C@@H]4O)ccc3O[C@@]2(C)COC)C(=N)N1 (stereo in doubt) [Example 291, (2R,3S)-3-(4,4-diethyl-2-imino-6-oxo-hexahydropyrimidin-1-yl)-N-[(1S,2R)-3,3-difluoro-2-hydroxy-indan-1-yl]-2-(methoxymethyl)-2-methyl-3H-benzofuran-5-carboxamide]
Second: CCC1(CC)CC(=O)N(C2CCOc3ccc(C(=O)N[C@@H]4c5ccccc5OC(C)(C)[C@H]4O)cc32)C(=N)N1 (stereo partly drawn) [Example 2A, 4-(4,4-diethyl-2-imino-6-oxotetrahydropyrimidin-1(2H)-yl)-N-((3S,4R)-3-hydroxy-2,2-dimethylchroman-4-yl)chroman-6-carboxamide]
The pEC50 of the first is 2.68 log units lower: 6.62 for the first, 9.30 for the second.

First: CCC1(CC)CC(=O)N(C2CCOc3ccc(C(=O)N[C@H]4CC(C)(C)Oc5ccccc54)cc32)C(=N)N1 (stereo partly drawn) [Example 1A, 4-(4,4-diethyl-2-imino-6-oxotetrahydropyrimidin-1(2H)-yl)-N—((S)-2,2-dimethylchroman-4-yl)chroman-6-carboxamide]
Second: CCC1(CC)CC(=O)N([C@@H]2CCOc3ccc(C(=O)N[C@H]4CCOc5ccccc54)cc32)C(=N)N1 [Example 3A, (R)-N-((S)-chroman-4-yl)-4-(4,4-diethyl-2-imino-6-oxotetrahydropyrimidin-1(2H)-yl)chromane-6-carboxamide]
The pEC50 of the first is 0.64 log units higher: 9.30 for the first, 8.66 for the second.

Going from `CCC1(CC)CC(=O)N([C@@H]2CCOc3ccc(C(=O)N[C@@H](C)c4ccccc4)cc32)C(=N)N1` [Example 4A, (R)-4-(4,4-diethyl-2-imino-6-oxotetrahydropyrimidin-1(2H)-yl)-N-((S)-1-phenylethyl)chromane-6-carboxamide] to `CCC1(CC)CC(=O)N([C@@H]2CCOc3ccc(C(=O)N[C@@H]4c5ccccc5C[C@H]4O)cc32)C(=N)N1` [Example 5A, (R)-4-(4,4-diethyl-2-imino-6-oxotetrahydropyrimidin-1(2H)-yl)-N-((1R,2R)-2-hydroxy-2,3-dihydro-1H-inden-1-yl)chromane-6-carboxamide], the pEC50 rises from 7.06 to 8.23 (1.17 log units). The second is the more potent here.

Compared with `CCC1(CC)CC(=O)N([C@@H]2CCOc3ccc(C(=O)N[C@H]4C[C@H](C(F)(F)F)Oc5ccccc54)cc32)C(=N)N1` [Example 6A, (R)-4-(4,4-diethyl-2-imino-6-oxotetrahydropyrimidin-1(2H)-yl)-N-((2R,4S)-2-(trifluoromethyl)chroman-4-yl)chromane-6-carboxamide], `CCC1(CC)CC(=O)N([C@@H]2CCOc3ccc(C(=O)N[C@@H]4C[C@@H](C(F)(F)F)Oc5ccccc54)cc32)C(=N)N1` [Example 6B, (R)-4-(4,4-diethyl-2-imino-6-oxotetrahydropyrimidin-1(2H)-yl)-N-((2S,4R)-2-(trifluoromethyl)chroman-4-yl)chromane-6-carboxamide] is 0.90 log units lower in pEC50: 8.96 for the first, 8.06 for the second. The first is the more potent here.
